“Also recorded” adds a separate entry of the source. Marks after values point to notes of the source that are not given here.
How the values were obtained:
Type in all cases: in vivo
[1] = test system: AAV-A53T α-synuclein rat model; assay: Immunohistochemistry of Ser129-phosphorylated α-synuclein in the SN; conditions: delayed start GM1; 8 weeks after AAV-A53T; not quantified
[2] = test system: AAV-A53T α-synuclein rat model; assay: Size of α-synuclein-positive aggregates in the striatum; conditions: for maximum aggregate size measured: striatum
Excerpt: Fixed tissue blocks were immersed in 30% sucrose for cryoprotection and sectioned frozen on a sliding microtome (30 μm section thickness for striatal sections; 40 μm section thickness for SN sections). Sections through the rostro-caudal extent of the SN were collected and every sixth section from the SN was processed for tyrosine hydroxylase (TH) immunohistochemistry to be used for stereological cell counting. Three striatal sections from approximately the level of the decussation of the anterior commissure in each case were processed for α-synuclein immunohistochemistry. For immunohistochemistry, sections were washed and permeabilized with PBS containing 0.2% Triton X-100. Endogenous peroxidase activity was quenched using 3% hydrogen peroxide in PBS containing 0.2% Triton X-100. Sections were then blocked in PBS/triton X-100 containing 10% normal goat serum and 2% BSA, followed by primary antibody incubation (TH (rabbit anti-TH, 1:2,000, Pel-Freez); α-synuclein (mouse anti-α-synuclein clone 211; 1:2000, Millipore) overnight at 4° C. The following day, sections were washed in PBS and incubated in biotinylated secondary antibody (goat-anti-rabbit 1:4000 for TH; goat-anti-mouse 1:2000 for α-synuclein 1:2000, VECTOR Laboratories), followed by additional washes and incubation in avidin biotin complex (VECTASTAIN Elite ABC system, VECTOR Laboratories). The reaction product was visualized with 3,3′-diaminobenzidine (DAB) (Immpact DAB, VECTOR Laboratories). Sections were then mounted, dehydrated, cleared and coverslipped. Sections stained for visualization of TH and to be used for stereological cell counting were counterstained with cresyl violet prior to coverslipping. […] Slides were coded and analyzed blindly. […] Cells were then counted at high power (100×) using a counting frame measuring 60 μm^2. […] This process was repeated for each section in the series for a given animal, and a total of 7-8 sections/animal were analyzed. Nissl-stained cells were counted concurrently in the same sections using the same sampling parameters. […]
Immunoblotting for α-synuclein expression was performed using the Wes western blot system (ProteinSimple). […] The sizes of α-synuclein-positive swelling/aggregates were measured in 3 fields (one medial, one central and one lateral) from 1 coronal section (at the approximate level of the decussation of the anterior commissure). Photographs were captured using a 40× objective on a Nikon Eclipse Ni microscope and α-synuclein-positive structures with an area >5 μm2 were considered as aggregates and were measured using Nikon MS Elements AR software. Data are presented as the distribution of aggregate sizes in the three striatal regions measured.

[3] = test system: AAV-A53T α-synuclein rat model; assay: Striatal dopamine and metabolite levels (UHPLC, electrochemical detection); conditions: for DA / DOPAC: striatum
Procedure: Institutional Animal Care and Use Committee and conducted in accordance with the National Institutes of Health Guide for the Care and Use of Laboratory Animals. Adult male Sprague-Dawley rats (Envigo), 250 to 300 g at the time of surgery, were housed three per cage with ad libitum access to food and water during a 12-hour light/dark cycle. All surgeries were performed under general anesthesia using a mixture of ketamine (100 mg/kg, i.p.) and xylazine (10 mg/kg, i.p.). Once animals were anesthetized, the head was shaved and surgically prepped with Betadine solution and alcohol before being placed in a Kopf stereotaxic frame with the incisor bar set at approximately 3.5 mm below horizontal zero to achieve a flat skull position. The skin on the top of the skull was cut along the midline and retracted. […] Following a 5 minute wait period after completion of the injection, the needle was slowly withdrawn, the skin wound was closed, and post-surgery analgesia (meloxicam 1 mg/kg) was administered. Some rats were randomly assigned to receive daily GM1 ganglioside (porcine brain derived GM1, 30 mg/kg, i.p., Qilu Pharmaceutical Co., Ltd.) or similar volume saline injections beginning 24 hours after AAV-A53T-synuclein surgery and lasting for 6 weeks (early start group). Other animals were randomly assigned to receive daily GM1 ganglioside (porcine brain derived GM1, 30 mg/kg, i.p., Qilu Pharmaceutical Co.) or similar volume saline injections beginning 3 weeks after AAV-A53T-synuclein surgery and lasting for 5 weeks (delayed start group). […] At the conclusion of the study, animals were euthanized, fresh brains were rapidly removed, and two to three striatal samples from both sides were dissected and immediately frozen for later analyses. The remainder of the brain (including the striatum beginning at the level of the decussation of the anterior commissure) was submersion fixed in 4% paraformaldehyde.
Striatal samples were sonicated cold in 0.4 M perchloric acid for 10 seconds and centrifuged at 13,000 rpm for 10 min at 4° C. The supernatant was removed and was diluted 1:4 with Milli-Q ultrapure water (resistivity 18.2 MΩ·cm) containing internal standard (isoproterenol, 4 ng). The diluted samples were centrifuged again at 13,000 rpm for 5 min at 4° C. Samples were kept on ice prior to loading into the refrigerated (4° C.) autosampler integrated with the HPLC system. An ALEXYS UHPLC system (Antec Scientific) with electrochemical detection (Decade Elite electrochemical detector with a glassy carbon electrode) was used for the analyses. […] The mobile phase (pH 3.0) consisted of 100 mM phosphoric acid, 100 mM citric acid, 0.1 mM EDTA.Na2, 600 mg/L octanesulfonic acid sodium salt, and 8% acetonitrile. Pump flow rate was 50 μl/min. The analytes were detected at an oxidation potential of 600 mV against a reference electrode at 0 mV. Data were acquired and processed using Clarity software (v7.4.1) (DataApex). Peak heights were compared against internal standard curves to determine the concentrations of DA and metabolites in each sample.

[4] = delayed start GM1 (3 weeks after AAV-A53T)
[5] = early start GM1 (24 hours after AAV-A53T)
[6] = delayed start GM1, 8 weeks after AAV-A53T
[7] = early start GM1, 6 weeks after AAV-A53T
[8] = AAV-A53T/Early GM1, injected side
[9] = AAV-A53T/Early GM1, non-injected side

GM1 ganglioside
Ser129-phosphorylated α-synuclein staining in the SN, GM1 vs saline [1]: less intense cytoplasmic Ser129-phosphorylated α-synuclein staining and fewer/smaller nuclear aggregates; also recorded: more Ser129 phosphorylated α-synuclein staining in saline-treated animals compared to GM1-treated animals
size distribution of striatal α-synuclein-positive aggregates, GM1 vs saline [2, 4]: greater numbers of larger sized aggregates in the saline-treated group compared to the GM1 group
maximum aggregate size measured [2, 4]: 29.3 μm^2
size distribution of striatal α-synuclein-positive aggregates, GM1 vs saline [2, 5]: larger numbers of smaller sized aggregates and fewer larger sized aggregates
maximum aggregate size measured [2, 5]: 28.8 μm^2
DOPAC levels on the injected side, % of non-injected side [3, 6]: 82.0±8.4%
DOPAC/DA ratio on the injected side, % of contralateral side [3, 6]: 150.0±10.9%
striatal DA levels on the injected side, % of contralateral side [3, 6]: 55.0±3.9%
DOPAC/DA ratio on the injected side, % of contralateral side [3, 7]: 112.3±9.5%
striatal DA levels on the injected side, % of contralateral side [3, 7]: 64.0±3.5%
DA ([3]; AAV-A53T/Delayed GM1, injected side): 5.87 ± 0.47^b μg/g wet tissue
DOPAC ([3]; AAV-A53T/Delayed GM1, injected side, two outlier samples removed): 0.93 ± 0.12^ μg/g wet tissue
DA ([3]; AAV-A53T/Delayed GM1, non-injected side): 10.73 ± 0.54 μg/g wet tissue
DOPAC ([3]; AAV-A53T/Delayed GM1, non-injected side, two outlier samples removed): 1.18 ± 0.10^ μg/g wet tissue
DA [3, 8]: 7.29 ± 0.45^a μg/g wet tissue
DOPAC [3, 8]: 0.85 ± 0.09 μg/g wet tissue
DA [3, 9]: 11.43 ± 0.32 μg/g wet tissue
DOPAC [3, 9]: 1.33 ± 0.10 μg/g wet tissue

Source: patent US20220226357A1, “METHODS FOR TREATING NEURODEGENERATIVE DISORDERS” (THOMAS JEFFERSON UNIVERSITY, priority 2019, published 2022)
